In US20060148858A1, “1, 2-Azole derivatives with hypoglycemic and hypolipidemic activity” (priority 2002, published 2006):

| melting point [°C] | Compound |
| --- | --- |
| 98 to 99 | CCOc1nn(-c2cc(C(F)(F)F)ccn2)cc1CCCOc1cccc(OC(C)(C)C(=O)O)c1 [Example 289, 2-[3-(3-{3-ethoxy-1-[4-(trifluoromethyl)-2-pyridinyl]-1H-pyrazol-4-yl}propoxy)phenoxy]-2-methylpropanoic acid] |
| 95 to 96 | CCCc1nn(-c2ccc(C(F)(F)F)cc2)cc1CCCOc1c(CC(=O)O)cccc1OC [Example 297, [3-methoxy-2-(3-{3-propyl-1-[4-(trifluoromethyl)phenyl]-1H-pyrazol-4-yl}propoxy)phenyl]acetic acid] |
| 119 to 120 | CCOc1cc(OCCCc2cn(-c3cc(C(F)(F)F)ccn3)nc2OCC)ccc1CCC(=O)O [Example 298, 3-[2-ethoxy-4-(3-{3-ethoxy-1-[4-(trifluoromethyl)-2-pyridinyl]-1H-pyrazol-4-yl}propoxy)phenyl]propanoic acid] |
| 114 to 115 | CCOc1cccc(CC(=O)O)c1OCCCc1cn(-c2ccc(C(F)(F)F)cn2)nc1OCC [Example 301, [3-ethoxy-2-(3-{3-ethoxy-1-[5-(trifluoromethyl)-2-pyridinyl]-1H-pyrazol-4-yl}propoxy)phenyl]acetic acid] |
| 141 to 142 | CC(C)c1nn(-c2ccc(Cl)cn2)cc1CCCOc1ccccc1CC(=O)O [Example 308, (2-{3-[1-(5-chloro-2-pyridinyl)-3-isopropyl-1H-pyrazol-4-yl]propoxy}phenyl)acetic acid] |
| 140 to 142 | CC(C)c1nn(-c2ccccn2)cc1CCCOc1ccccc1CC(=O)O [Example 309, (2-{3-[3-isopropyl-1-(2-pyridinyl)-1H-pyrazol-4-yl]propoxy}phenyl)acetic acid] |
| 124 to 125 | CC(C)c1nn(-c2ccc(C(F)(F)F)cn2)cc1CCCOc1nn(C)cc1CCC(=O)O [Example 310, 3-[3-(3-{3-isopropyl-1-[5-(trifluoromethyl)-2-pyridinyl]-1H-pyrazol-4-yl}propoxy)-1-methyl-1H-pyrazol-4-yl]propanoic acid] |
| 102 to 104 | COc1cccc(CC(=O)O)c1OCCCc1cn(-c2ccccn2)nc1C(C)C [Example 312, (2-{3-[3-isopropyl-1-(2-pyridinyl)-1H-pyrazol-4-yl]propoxy}-3-methoxyphenyl)acetic acid] |
| 103 to 104 | CCCc1nn(-c2ccc(C(F)(F)F)cn2)cc1CCCOc1nn(C)cc1CCC(=O)O [Example 314, 3-[1-methyl-3-(3-{3-propyl-1-[5-(trifluoromethyl)-2-pyridinyl]-1H-pyrazol-4-yl}propoxy)-1H-pyrazol-4-yl]propanoic acid] |
| 116 to 117 | CC(C)c1nn(-c2ccc(C(F)(F)F)cn2)cc1CCCOc1nn(C2CCCCC2)cc1CC(=O)O [Example 317, [1-cyclohexyl-3-(3-{3-isopropyl-1-[5-(trifluoromethyl)-2-pyridinyl]-1H-pyrazol-4-yl}propoxy)-1H-pyrazol-4-yl]acetic acid] |
| 127 to 128 | CCCc1nn(-c2ccc(C(F)(F)F)cn2)cc1CCCOc1nn(C2CCCCC2)cc1CC(=O)O [Example 320, [1-cyclohexyl-3-(3-{3-propyl-1-[5-(trifluoromethyl)-2-pyridinyl]-1H-pyrazol-4-yl}propoxy)-1H-pyrazol-4-yl]acetic acid] |
| 136 to 138 | CCCc1nn(-c2ccc(C(F)(F)F)cn2)cc1CCCOc1c(CC(=O)O)cnn1C [Example 321, [1-methyl-5-(3-{3-propyl-1-[5-(trifluoromethyl)-2-pyridinyl]-1H-pyrazol-4-yl}propoxy)-1H-pyrazol-4-yl]acetic acid] |
| 112 to 113 | COc1cccc(CCC(=O)O)c1OCCCc1cn(-c2ccc(C(F)(F)F)cn2)nc1C(C)C [Example 323, 3-[2-(3-{3-isopropyl-1-[5-(trifluoromethyl)-2-pyridinyl]-1H-pyrazol-4-yl}propoxy)-3-methoxyphenyl]propanoic acid] |
| 93 to 94 | COc1ccc(CCC(=O)O)cc1OCCCc1cn(-c2ccc(C(F)(F)F)cn2)nc1C(C)C [Example 324, 3-[3-(3-{3-isopropyl-1-[5-(trifluoromethyl)-2-pyridinyl]-1H-pyrazol-4-yl}propoxy)-4-methoxyphenyl]propanoic acid] |
| 137 to 138 | Cn1ncc(CC(=O)O)c1OCCCc1cn(-c2ccc(C(F)(F)F)cn2)nc1C1CCCCC1 [Example 325, [5-(3-{3-cyclohexyl-1-[5-(trifluoromethyl)-2-pyridinyl]-1H-pyrazol-4-yl}propoxy)-1-methyl-1H-pyrazol-4-yl]acetic acid] |
| 125 to 126 | CCCc1nn(-c2ccc(C(F)(F)F)cn2)cc1CCCOc1c(CC(=O)O)cnn1CC [Example 326, [1-ethyl-5-(3-{3-propyl-1-[5-(trifluoromethyl)-2-pyridinyl]-1H-pyrazol-4-yl}propoxy)-1H-pyrazol-4-yl]acetic acid] |

| melting point [°C] | Compound |
| --- | --- |
| 123 to 124 | Cc1cnn(CC(=O)O)c1OCCCc1cn(-c2ccc(C(F)(F)F)cn2)nc1C(C)C [Example 327, [5-(3-{3-isopropyl-1-[5-(trifluoromethyl)-2-pyridinyl]-1H-pyrazol-4-yl}propoxy)-4-methyl-1H-pyrazol-1-yl]acetic acid] |
| 111 to 112 | CCc1cnn(CC(=O)O)c1OCCCc1cn(-c2ccc(C(F)(F)F)cn2)nc1C(C)C [Example 328, [4-ethyl-5-(3-{3-isopropyl-1-[5-(trifluoromethyl)-2-pyridinyl]-1H-pyrazol-4-yl}propoxy)-1H-pyrazol-1-yl]acetic acid] |
| 145 to 146 | CCCc1nn(-c2ccc(C(F)(F)F)cn2)cc1CCCOc1c(C)cnn1CC(=O)O [Example 329, [4-methyl-5-(3-{3-propyl-1-[5-(trifluoromethyl)-2-pyridinyl]-1H-pyrazol-4-yl}propoxy)-1H-pyrazol-1-yl]acetic acid] |
| 124 to 125 | CCc1cnn(CC(=O)O)c1OCCCc1cn(-c2ccc(C(F)(F)F)cn2)nc1C(CC)CC [Example 330, [4-ethyl-5-(3-{3-(1-ethylpropyl)-1-[5-(trifluoromethyl)-2-pyridinyl]-1H-pyrazol-4-yl}propoxy)-1H-pyrazol-1-yl]acetic acid] |
| 135 to 136 | CCCc1nn(-c2ccc(C(F)(F)F)cn2)cc1CCCOc1c(CC)cnn1CC(=O)O [Example 331, [4-ethyl-5-(3-{3-propyl-1-[5-(trifluoromethyl)-2-pyridinyl]-1H-pyrazol-4-yl}propoxy)-1H-pyrazol-1-yl]acetic acid] |
| 105 to 106 | COc1cccc(CC(=O)O)c1OCCCc1cn(-c2ncc(Cl)cc2Cl)nc1C(C)C [Example 336, (2-{3-[1-(3,5-dichloro-2-pyridyl)-3-isopropyl-1H-pyrazol-4-yl]propoxy}-3-methoxyphenyl)acetic acid] |
| 93 to 94 | CCc1cccc(CC(=O)O)c1OCCCc1cn(-c2ccc(C(F)(F)F)nn2)nc1C(CC)CC [Example 341, [3-ethyl-2-(3-{3-(1-ethylpropyl)-1-[6-(trifluoromethyl)pyridazin-3-yl]-1H-pyrazol-4-yl}propoxy)phenyl]acetic acid] |
| 114 to 115 | COc1cccc(CC(=O)O)c1OCCCc1cn(-c2nnc(C(F)(F)F)s2)nc1C(C)C [Example 344, [2-(3-{3-isopropyl-1-[5-(trifluoromethyl)-1,3,4-thiadiazol-2-yl]-1H-pyrazol-4-yl}propoxy)-3-methoxyphenyl]acetic acid] |
| 94 to 95 | COc1cccc(CC(=O)O)c1OCCCc1cn(-c2ccc(C(F)(F)F)cn2)nc1C(C)(C)C [Example 345, [2-(3-{3-tert-butyl-1-[5-(trifluoromethyl)-2-pyridinyl]-1H-pyrazol-4-yl}propoxy)-3-methoxyphenyl]acetic acid] |
| 86 to 87 | Cc1cccc(CC(=O)O)c1OCCCc1cn(-c2ccc(C(F)(F)F)cn2)nc1C(C)(C)C [Example 346, [2-(3-{3-tert-butyl-1-[5-(trifluoromethyl)-2-pyridinyl]-1H-pyrazol-4-yl}propoxy)-3-methylphenyl]acetic acid] |
| 98 to 99 | CCc1cccc(CC(=O)O)c1OCCCc1cn(-c2ccc(C(F)(F)F)cn2)nc1C(C)(C)C [Example 347, [2-(3-{3-tert-butyl-1-[5-(trifluoromethyl)-2-pyridinyl]-1H-pyrazol-4-yl}propoxy)-3-ethylphenyl]acetic acid] |
| 78 to 79 | CCC(CC)c1nn(-c2ccc(C(F)(F)F)cn2)cc1CCCOc1c(CC(=O)O)ccnc1C [Example 348, [3-(3-{3-(1-ethylpropyl)-1-[5-(trifluoromethyl)-2-pyridinyl]-1H-pyrazol-4-yl}propoxy)-2-methyl-4-pyridinyl]acetic acid] |
| 120 to 121 | CCC(CC)c1nn(-c2ccc(Br)cn2)cc1CCCOc1c(C)cccc1CC(=O)O [Example 353, (2-{3-[1-(5-bromo-2-pyridinyl)-3-(1-ethylpropyl)-1H-pyrazol-4-yl]propoxy}-3-methylphenyl) acetic acid] |
| 123 | CCc1cccc(CC(=O)O)c1OCCCc1cn(-c2ccc(Br)cn2)nc1C(CC)CC [Example 355, (2-{3-[1-(5-bromo-2-pyridinyl)-3-(1-ethylpropyl)-1H-pyrazol-4-yl]propoxy}-3-ethylphenyl)acetic acid] |
| 108 to 109 | CC(C)c1cccc(CC(=O)O)c1OCCCc1cn(-c2ccc(C(F)(F)F)cn2)nc1C(C)C [Example 357, [3-isopropyl-2-(3-{3-isopropyl-1-[5-(trifluoromethyl)-2-pyridinyl]-1H-pyrazol-4-yl}propoxy)phenyl]acetic acid] |
| 102 to 103 | CCCc1nn(-c2ccc(C(F)(F)F)cn2)cc1CCCOc1c(CC(=O)O)cccc1C(C)C [Example 359, [3-isopropyl-2-(3-{3-propyl-1-[5-(trifluoromethyl)-2-pyridinyl]-1H-pyrazol-4-yl}propoxy)phenyl]acetic acid] |

| Compound | melting point [°C] |
| --- | --- |
| CCCc1nn(-c2ccc(C(F)(F)F)cn2)cc1CCCCOc1c(CC(=O)O)cccc1OC [Example 295, [3-methoxy-2-(4-{3-propyl-1-[5-(trifluoromethyl)-2-pyridinyl]-1H-pyrazol-4-yl}butoxy)phenyl]acetic acid] | 111 to 112 |
